Results reported in paper PMC11393453, “Phosphorylation of tau at a single residue inhibits binding to the E3 ubiquitin ligase, CHIP” (Nature Communications, 2024).
Like-named read-outs stand apart in the source and are kept apart here.

Tests used:
CHIP [1] = conditions: cited from earlier work
Text: Moreover, the appearance of pS416 and tauC3 are coincident in AD patient samples (see Fig. 5), supporting a putative role of these PTMs in tau proteostasis. Based on these collective findings and in concert with observations from the literature, we propose a model to explain the hierarchy of these tau PTMs (Fig. 6D). In this speculative model, FL tau can either be phosphorylated by MARK2 or CaMKII ...

CHIP [2] = assay: CHIP-tau binding ELISA (tau proteoforms on immobilized CHIP)

For “p.tau: full length phosphorylated tau produced in Sf9 insect cells”, the “fold better binding of CHIP than to unmodified FL tau” value (CHIP [1]) is given as 10 fold, the Kd (CHIP [2]; Fig 1C,D, tau proteoform binding to immobilized CHIP (1 µM coated), 3 h RT, technical triplicate, ± SD) is given as about 500 nM and the Kd (CHIP [2]; Fig 1D, replicate 1) is given as 433 nM. It also gave a Kd (CHIP [2]; Fig 1D, replicate 2) of 464 nM, a Kd (CHIP [2]; Fig 1D, replicate 3) of 471 nM and a Kd (CHIP [2]; read-out: transformed Kd, Fig 1D, replicate 1) of 433 nM. The Kd (CHIP [2]; read-out: transformed Kd, Fig 1D, replicate 2) was 464 nM and the Kd (CHIP [2]; read-out: transformed Kd, Fig 1D, replicate 3) was 471 nM.
